Reference: patent publication US10222368B2 (priority 2012, dated 2019)

Key:
TLR4-FLNA complex = biological target: T1, TLR4-FLNA complex (Homo sapiens, UniProt P21333); experiment: Lymphocyte co-immunoprecipitation / Western blot; type: cell-based
T1 construct: To determine the levels of FLNA-α7nAChR, FLNA-TLR4 and α7nAChR-Aβ42 complexes in the lymphocytes; endogenous in cells; host or cells: lymphocytes from venous blood of AD patients and control subjects (ex vivo)
Method: To prepare lymphocytes, 7 ml of venous blood was collected into an EDTA-containing collecting tube or S-monovette (Sarstedt, Newton, N.C.). Collected blood (6 ml) was layered onto 6 ml HISTOPAQUE-1077 (Sigma, St Louis, Mo.) at 25° C. and the entire anti-coagulated blood was centrifuged at 400×g for 30 minutes (25° C.) to yield plasma (top layer) and lymphocytes (opaque interface). The lymphocytes were washed twice by mixing with 6 ml oxygenated Kreb's-Ringer followed by centrifugation at 250×g for 10 minutes and re-suspension. The final pellet was resuspended in 250 μl oxygenated Kreb's-Ringer prior to protein content determination by the Bradford method and assessment of the levels of FLNA-α7nAChR, FLNA-TLR4 and α7nAChR-Aβ42 complexes. To store lymphocytes, the lymphocyte pellet was resuspended in 250 μl ice-cold oxygenated Kreb's-Ringer containing 10% glycerol, and stored at −20° C. for 1 hour before storage at −80° C.
To determine the levels of FLNA-α7nAChR, FLNA-TLR4 and α7nAChR-Aβ42 complexes in the lymphocytes, lymphocytes (50 μg) from control subjects were incubated for 30 minutes at 37° C. in 0.25 ml Kreb's-Ringer without or with 100 nM Aβ 42, and lymphocytes (50 μg) from AD subjects were incubated for 30 minutes at 37° C. in 0.25 ml Kreb's-Ringer. Lymphocytes from control and AD subjects were also simultaneously incubated with or without Compound C0105 (1 nM). […] In the case that frozen lymphocyte samples were used, a lymphocyte suspension was gradually thawed by storing at −20° C. for 1 hour after removal from −80° C. and then at thawed at 4° C.
The incubation was terminated by adding 1 ml ice-cold Ca^2+-free Kreb's-Ringer containing 0.5 mM EGTA/0.1 mM EDTA, protease and phosphatase inhibitors followed by centrifugation. The resultant lymphocyte pellet was homogenized in 0.25 ml ice-cold immunoprecipitation buffer. […]
The results are shown in FIG. 1A and quantified in FIG. 1C. […]

Aβ42-α7nAChR complex = experiment: Lymphocyte co-immunoprecipitation / Western blot; type: cell-based, human
Method: To prepare lymphocytes, 7 ml of venous blood was collected into an EDTA-containing collecting tube or S-monovette (Sarstedt, Newton, N.C.). […] The lymphocytes were washed twice by mixing with 6 ml oxygenated Kreb's-Ringer followed by centrifugation at 250×g for 10 minutes and re-suspension. […] To store lymphocytes, the lymphocyte pellet was resuspended in 250 μl ice-cold oxygenated Kreb's-Ringer containing 10% glycerol, and stored at −20° C. for 1 hour before storage at −80° C.
The incubation was terminated by adding 1 ml ice-cold Ca^2+-free Kreb's-Ringer containing 0.5 mM EGTA/0.1 mM EDTA, protease and phosphatase inhibitors followed by centrifugation. […]
The membranes were then washed 3 times (1 minutes each) with 0.1% Tween-20 containing PBS and then once with distilled water for 1 minutes. The immunoreactivity was detected by a chemiluminutesescent method (Supersignal chemiluminutesescent reagents−Pierce/Thermo), and visualized by immediate exposure to X-ray film for 10-30 seconds (depending on the intensity of the signal). Specific protein bands were quantified by densitometric scanning (GS-800 calibrated densitometer, Bio-Rad Laboratories). […]

TLR4-FLNA complexes = biological target: T2, TLR4-FLNA complexes (Mus musculus, UniProt Q8BTM8); experiment: AD transgenic mouse oral treatment, lymphocyte anti-FLNA immunoprecipitation / Western blot; type: in vivo; conditions: 30 mg/kg C0105 orally for 2 months; AD transgenic mice from age 4 and 8 months
T2 construct: measuring α7nAChR and TLR4 contents in anti-FLNA immunoprecipitate by Western blotting; endogenous in cells; host or cells: trunk-blood lymphocytes of E129 and tau/APP695sw/PS1 transgenic mice
Method: FIG. 19, in five panels as FIG. 19A and FIG. 19B, FIG. 19C, FIG. 19D and FIG. 19E, illustrate the effects of oral administration of 30 mg/kg of Compound C0105 for a period of two months to E129 mice and AD transgenic (tau/APP695sw(-9E0/PS1) mice beginning at the ages of 4 and 8 months. Mice were sacrificed, and their brains extracted/dissected to confirm pathologies. Trunk blood was collected and lymphocyte lysate preparations were analyzed for levels of α7nAChR and FLNA as well as TLR4 and FLNA by measuring α7nAChR and TLR4 contents in anti-FLNA immunoprecipitates by Western blotting and visualization with FITC. Data are expressed as the ratios of optical intensities of α7nAChR to FLNA (FIGS. 19B and 19C) and TLR4 to FLNA (FIGS. 19D and 19E). n=5. […]
To assess the C0105's AD treatment efficacy, E129 mice and AD transgenic (tau/APP695sw(-9E)/PS1) mice at age of 4-months (minimal plaque pathologies) and 8-months (established plaque pathologies) were treated orally with 30 mg/kg of C0105 for 2 months. […] The protein bands were detected using a chemiluminescent method, visualized by exposure to x-ray film and quantified by densitometric scan.
The data were expressed as the ratios of optical intensities of α7nAChR to FLNA and TLR4 to FLNA. […]

[1] = biological target: FLNA association with TLR4 (Mus musculus, UniProt Q8BTM8); experiment: ICV Aβ42 infusion mouse model, synaptosome co-immunoprecipitation; conditions: 10 mg/kg C0105 i.p. twice daily, 2 weeks; prefrontal cortex and hippocampus
α7nAChR-FLNA association = biological target: T3, α7nAChR-FLNA association (Rattus norvegicus, UniProt A0A8I5ZV49); experiment: Rat frontal cortical synaptosomes treated with Aβ42, anti-FLNA immunoprecipitation / Western blot; type: cell-based; conditions: 1 or 10 nM compound, simultaneously or 10 min prior to 0.1 μM Aβ42
T3 construct: from tissue; host or cells: rat frontal cortical synaptosomes
Text: The α7nAChR-FLNA complexes in the solubilized synaptosomes were immunoprecipitated with immobilized anti-FLNA and the α7nAChR and FLNA levels in the anti-FLNA immunoprecipitates determined by Western blotting (FIG. 14A) and quantified by densitometry for illustrative compounds (FIG. 14B). n=3. […] The letter designation “M” that accompanies many of the “C-series” compounds is omitted from FIG. 14, the remaining figures and most discussions of the figures and compounds hereinafter for ease in expression. Structural formulas of the compounds used in this and the other figures are provided hereinafter.
The complexes in the solubilized synaptosomes, and α7nAChR, TLR4 and FLNA levels in the anti-FLNA immunoprecipitates were determined by Western blotting (FIG. 15A) in which numerals outside of and to the left of the blots are as discussed before. Amounts present in the blots were quantified by densitometry (FIG. 15B). […] Structural formulas of the compounds used in this and the other figures are provided hereinafter.

[2] = 1 nM C0105, lymphocytes of 10 YCI controls

T1 sequence (P21333 2-2647 limits assumed, one chain of several): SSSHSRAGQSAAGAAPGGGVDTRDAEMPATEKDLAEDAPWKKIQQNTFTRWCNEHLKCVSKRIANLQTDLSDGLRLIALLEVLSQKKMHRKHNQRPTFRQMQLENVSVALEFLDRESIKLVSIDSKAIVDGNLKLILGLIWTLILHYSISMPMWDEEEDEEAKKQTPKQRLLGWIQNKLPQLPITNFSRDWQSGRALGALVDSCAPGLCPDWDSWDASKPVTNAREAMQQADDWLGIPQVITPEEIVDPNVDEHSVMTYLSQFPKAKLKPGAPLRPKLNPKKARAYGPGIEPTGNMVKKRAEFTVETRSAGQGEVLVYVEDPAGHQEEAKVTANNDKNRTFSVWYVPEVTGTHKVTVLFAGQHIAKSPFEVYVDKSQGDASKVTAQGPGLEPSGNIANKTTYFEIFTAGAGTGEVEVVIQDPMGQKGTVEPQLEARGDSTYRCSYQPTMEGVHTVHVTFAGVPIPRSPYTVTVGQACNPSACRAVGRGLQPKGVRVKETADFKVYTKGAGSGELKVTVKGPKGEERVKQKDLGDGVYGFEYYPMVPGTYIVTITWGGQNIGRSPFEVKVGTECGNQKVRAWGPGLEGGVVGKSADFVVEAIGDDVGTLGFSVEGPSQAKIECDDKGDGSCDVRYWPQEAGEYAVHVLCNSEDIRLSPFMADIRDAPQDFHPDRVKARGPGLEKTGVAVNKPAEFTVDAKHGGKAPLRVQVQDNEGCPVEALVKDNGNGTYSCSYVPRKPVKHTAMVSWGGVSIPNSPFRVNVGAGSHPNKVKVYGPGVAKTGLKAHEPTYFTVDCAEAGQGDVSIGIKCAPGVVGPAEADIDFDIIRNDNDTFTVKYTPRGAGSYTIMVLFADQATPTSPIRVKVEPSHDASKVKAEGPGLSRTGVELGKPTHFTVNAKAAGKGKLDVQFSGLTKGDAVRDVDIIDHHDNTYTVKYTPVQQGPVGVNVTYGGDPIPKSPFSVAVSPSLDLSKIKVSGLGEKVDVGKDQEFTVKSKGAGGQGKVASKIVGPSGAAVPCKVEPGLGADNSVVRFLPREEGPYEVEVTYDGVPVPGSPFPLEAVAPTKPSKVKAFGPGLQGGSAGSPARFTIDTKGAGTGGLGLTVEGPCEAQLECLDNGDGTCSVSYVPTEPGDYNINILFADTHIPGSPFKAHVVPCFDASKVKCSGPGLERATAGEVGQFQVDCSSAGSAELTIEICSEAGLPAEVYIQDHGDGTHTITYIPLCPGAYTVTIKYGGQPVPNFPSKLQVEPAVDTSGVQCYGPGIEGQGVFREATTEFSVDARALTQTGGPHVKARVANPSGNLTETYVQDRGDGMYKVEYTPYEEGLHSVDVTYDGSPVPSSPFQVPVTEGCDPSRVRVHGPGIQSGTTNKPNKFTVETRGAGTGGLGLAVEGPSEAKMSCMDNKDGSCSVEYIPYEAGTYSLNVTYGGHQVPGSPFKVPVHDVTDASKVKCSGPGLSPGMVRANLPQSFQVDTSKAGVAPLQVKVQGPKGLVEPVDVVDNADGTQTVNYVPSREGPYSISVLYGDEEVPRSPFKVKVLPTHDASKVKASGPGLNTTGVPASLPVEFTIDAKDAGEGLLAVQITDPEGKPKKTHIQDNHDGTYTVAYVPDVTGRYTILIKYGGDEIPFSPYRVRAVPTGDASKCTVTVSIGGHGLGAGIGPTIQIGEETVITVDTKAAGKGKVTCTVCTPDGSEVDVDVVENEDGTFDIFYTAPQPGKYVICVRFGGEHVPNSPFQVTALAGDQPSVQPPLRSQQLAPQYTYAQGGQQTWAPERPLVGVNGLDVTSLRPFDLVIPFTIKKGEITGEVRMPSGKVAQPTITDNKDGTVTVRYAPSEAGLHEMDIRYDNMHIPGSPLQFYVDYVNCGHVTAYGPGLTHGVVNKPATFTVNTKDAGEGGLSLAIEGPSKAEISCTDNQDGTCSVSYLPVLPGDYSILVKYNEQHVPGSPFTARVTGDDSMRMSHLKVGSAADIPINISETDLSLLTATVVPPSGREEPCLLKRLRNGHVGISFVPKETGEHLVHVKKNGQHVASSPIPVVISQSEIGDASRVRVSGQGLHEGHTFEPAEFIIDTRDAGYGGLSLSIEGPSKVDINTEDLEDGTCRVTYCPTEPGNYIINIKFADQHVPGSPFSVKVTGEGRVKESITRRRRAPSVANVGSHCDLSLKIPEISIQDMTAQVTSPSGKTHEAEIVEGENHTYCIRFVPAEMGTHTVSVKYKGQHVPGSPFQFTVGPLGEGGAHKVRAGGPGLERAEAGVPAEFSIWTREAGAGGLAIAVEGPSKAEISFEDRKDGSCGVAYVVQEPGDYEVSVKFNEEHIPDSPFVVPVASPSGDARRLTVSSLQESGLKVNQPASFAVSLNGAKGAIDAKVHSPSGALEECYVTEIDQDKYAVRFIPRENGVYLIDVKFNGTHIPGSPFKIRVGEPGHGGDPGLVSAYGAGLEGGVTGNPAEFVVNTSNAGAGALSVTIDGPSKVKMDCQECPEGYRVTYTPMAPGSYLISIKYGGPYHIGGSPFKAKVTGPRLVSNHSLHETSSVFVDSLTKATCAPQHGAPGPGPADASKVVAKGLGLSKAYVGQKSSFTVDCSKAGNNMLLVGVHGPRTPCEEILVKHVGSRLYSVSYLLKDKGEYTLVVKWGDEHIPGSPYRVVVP

CN1CCC2(CC1)NCC(=O)N2Cc1ccccc1 [Compound C0105]
inhibition at 0.001 µM (TLR4-FLNA complex; 1 nM C0105, 30 min, lymphocytes of 20 AD subjects, read-out: Reduction of TLR4/FLNA complex level (% inhibition)): ~50%
Effect on amount of TLR4-FLNA complexes (in words), pilot study (TLR4-FLNA complex; 1 nM C0105, Aβ42-treated control and untreated AD lymphocytes): decreases the amount of TLR4-FLNA complexes
Effect on TLR4/FLNA complex level (in words) (TLR4-FLNA complex; [2]): no discernible effect
Reduction of α7nAChR/Aβ42 complex level (% inhibition) (Aβ42-α7nAChR complex; 1 nM C0105, 30 min, lymphocytes of 20 AD subjects): approximately 50%
Effect on α7nAChR/Aβ42 complex level (in words) (Aβ42-α7nAChR complex; [2]): no discernible effect
Effect on elevated TLR4-FLNA complexes in lymphocytes (in words) (TLR4-FLNA complexes): robustly normalized
Effect on Aβ42-induced FLNA association with TLR4 (in words) [1]: reduced Aβ42-induced increases in FLNA associations
Effect on Aβ42-induced α7nAChR-FLNA association (in words) (α7nAChR-FLNA association): reduce α7nAChR-FLNA association
